Experimental data taken from the NIST ThermoML archive (doi:10.1016/j.jct.2016.01.019).
± gives the expanded uncertainty stated by the source.

Assay: refractive index (Na D-line) (dimensionless); xn = mol fraction of the nth substance listed
Conditions: 94.64 kPa, Liquid, Standard Abbe refractometry

Structure (SMILES): CC(O)CO (stereo unspecified) [1,2-propanediol] + OCCCO
- refractive index (293.15 K, x1 = 1): 1.43219 ± 0.002
- refractive index (298.15 K, x1 = 1): 1.4303 ± 0.002
- refractive index (303.15 K, x1 = 1): 1.42921 ± 0.002
- refractive index (308.15 K, x1 = 1): 1.42746 ± 0.002
- refractive index (313.15 K, x1 = 1): 1.42566 ± 0.002
- refractive index (318.15 K, x1 = 1): 1.42386 ± 0.002

Structure (SMILES): OCCCO [propan-1,3-diol] + CC(O)CO
- refractive index (293.15 K, x2 = 0): 1.43932 ± 0.002
- refractive index (293.15 K, x2 = 0.0985): 1.43907 ± 0.002
- refractive index (293.15 K, x2 = 0.2023): 1.43879 ± 0.002
- refractive index (293.15 K, x2 = 0.3015): 1.43838 ± 0.002
- refractive index (293.15 K, x2 = 0.3961): 1.4378 ± 0.002
- refractive index (293.15 K, x2 = 0.5009): 1.43695 ± 0.002
- refractive index (293.15 K, x2 = 0.5961): 1.436 ± 0.002
- refractive index (293.15 K, x2 = 0.6965): 1.43508 ± 0.002
- refractive index (293.15 K, x2 = 0.7974): 1.4342 ± 0.002
- refractive index (293.15 K, x2 = 0.8985): 1.4331 ± 0.002
- refractive index (298.15 K, x2 = 0): 1.43796 ± 0.002
- refractive index (298.15 K, x2 = 0.0985): 1.4376 ± 0.002
- refractive index (298.15 K, x2 = 0.2023): 1.43721 ± 0.002
- refractive index (298.15 K, x2 = 0.3015): 1.43671 ± 0.002
- refractive index (298.15 K, x2 = 0.3961): 1.43612 ± 0.002
- refractive index (298.15 K, x2 = 0.5009): 1.43533 ± 0.002
- refractive index (298.15 K, x2 = 0.5961): 1.43455 ± 0.002
- refractive index (298.15 K, x2 = 0.6965): 1.43364 ± 0.002
- refractive index (298.15 K, x2 = 0.7974): 1.43275 ± 0.002
- refractive index (298.15 K, x2 = 0.8985): 1.43161 ± 0.002
- refractive index (303.15 K, x2 = 0): 1.43665 ± 0.002
- refractive index (303.15 K, x2 = 0.0985): 1.43619 ± 0.002
- refractive index (303.15 K, x2 = 0.2023): 1.43572 ± 0.002
- refractive index (303.15 K, x2 = 0.3015): 1.43521 ± 0.002
- refractive index (303.15 K, x2 = 0.3961): 1.43459 ± 0.002
- refractive index (303.15 K, x2 = 0.5009): 1.4339 ± 0.002
- refractive index (303.15 K, x2 = 0.5961): 1.43318 ± 0.002
- refractive index (303.15 K, x2 = 0.6965): 1.4321 ± 0.002
- refractive index (303.15 K, x2 = 0.7974): 1.4311 ± 0.002
- refractive index (303.15 K, x2 = 0.8985): 1.43017 ± 0.002
- refractive index (308.15 K, x2 = 0): 1.43523 ± 0.002
- refractive index (308.15 K, x2 = 0.0985): 1.43478 ± 0.002
- refractive index (308.15 K, x2 = 0.2023): 1.43424 ± 0.002
- refractive index (308.15 K, x2 = 0.3015): 1.43377 ± 0.002
- refractive index (308.15 K, x2 = 0.3961): 1.43324 ± 0.002
- refractive index (308.15 K, x2 = 0.5009): 1.43241 ± 0.002
- refractive index (308.15 K, x2 = 0.5961): 1.43161 ± 0.002
- refractive index (308.15 K, x2 = 0.6965): 1.43076 ± 0.002
- refractive index (308.15 K, x2 = 0.7974): 1.42967 ± 0.002
- refractive index (308.15 K, x2 = 0.8985): 1.42858 ± 0.002
- refractive index (313.15 K, x2 = 0): 1.43385 ± 0.002
- refractive index (313.15 K, x2 = 0.0985): 1.4333 ± 0.002
- refractive index (313.15 K, x2 = 0.2023): 1.43276 ± 0.002
- refractive index (313.15 K, x2 = 0.3015): 1.43207 ± 0.002
- refractive index (313.15 K, x2 = 0.3961): 1.43145 ± 0.002
- refractive index (313.15 K, x2 = 0.5009): 1.43061 ± 0.002
- refractive index (313.15 K, x2 = 0.5961): 1.43 ± 0.002
- refractive index (313.15 K, x2 = 0.6965): 1.42906 ± 0.002
- refractive index (313.15 K, x2 = 0.7974): 1.42818 ± 0.002
- refractive index (313.15 K, x2 = 0.8985): 1.42699 ± 0.002
- refractive index (318.15 K, x2 = 0): 1.43255 ± 0.002
- refractive index (318.15 K, x2 = 0.0985): 1.43195 ± 0.002
- refractive index (318.15 K, x2 = 0.2023): 1.43131 ± 0.002
- refractive index (318.15 K, x2 = 0.3015): 1.43057 ± 0.002
- refractive index (318.15 K, x2 = 0.3961): 1.42992 ± 0.002
- refractive index (318.15 K, x2 = 0.5009): 1.42921 ± 0.002
- refractive index (318.15 K, x2 = 0.5961): 1.42848 ± 0.002
- refractive index (318.15 K, x2 = 0.6965): 1.42752 ± 0.002
- refractive index (318.15 K, x2 = 0.7974): 1.42653 ± 0.002
- refractive index (318.15 K, x2 = 0.8985): 1.42545 ± 0.002
